Source: patent US10689399B2, “Substituted 3,4,5,6,8,10,14,14a-octahydro-2h-2,6-methanopyrido[1′,2′:4,5]pyrazino[2,1-b][1,3]oxazocines and methods for treating viral infections” (Gilead Sciences, Inc., priority 2012, dated 2020)
Where two headings read alike, the source gives them in different places.

System: HIV-IIIb
Test: Antiviral assay in MT4 cells
Format: cell-based
Settings: Human immunodeficiency virus 1, IIIB, MT4, 120 h
Description: For the antiviral assay utilizing MT4 cells, 0.4 μL of 189X test concentration of 3-fold serially diluted compound in DMSO was added to 40 μL of cell growth medium (RPMI 1640, 10% FBS, 1% penicilline/Streptomycine, 1% L-Glutamine, 1% HEPES) in each well of 384-well assay plates (10 concentrations) in quidruplicate.
1 mL aliquots of 2×10^6 MT4 cells are pre-infected for 1 and 3 hours respectively at 37° C. with 25 μL (MT4) or of either cell growth medium (mock-infected) or a fresh 1:250 dilution of an HIV-IIIb concentrated ABI stock (0.004 m.o.i. for MT4 cells). Infected and uninfected cells are diluted in cell growth medium and 35 μL of 2000 (for MT4) cells is added to each well of the assay plates.
Assay plates were then incubated in a 37° C. incubator. After 5 days of incubation, 25 μL of 2× concentrated CellTiter-Glo™ Reagent (catalog # G7573, Promega Biosciences, Inc., Madison, Wis.) was added to each well of the assay plate. Cell lysis was carried out by incubating at room temperature for 2-3 minutes, and then chemiluminescence was read using the Envision reader (PerkinElmer).

[1] = MT4 cells infected with HIV-IIIb, 5 days, CellTiter-Glo, read-out: EC50 nM in MT-4

SMILES	EC50 [1]	EC50 (read-out: EC50 nM in MT-4, MT4 cells infected with HIV-IIIb, 5 days, CellTiter-Glo)
O=C(NCc1cc(F)c(F)cc1F)c1cn2c(c(O)c1=O)C(=O)N1[C@H]3CC[C@H](C3)O[C@@H]1C2 [Compound 64, (2R,5S,13aR)-8-hydroxy-7,9-dioxo-N-(2,4,5-trifluorobenzyl)-2,3,4,5,7,9,13,13a-octahydro-2,5-methanopyrido[1′,2′:4,5]pyrazino[2,1-b][1,3]oxazepine-10-carboxamide]	3.5 nM	
O=C(NCc1cccc(Cl)c1F)c1cn2c(c(O)c1=O)C(=O)N1[C@H]3CC[C@H](C3)O[C@@H]1C2 [Compound 88, (2R,5S,13aR)—N-(3-chloro-2-fluorobenzyl)-8-hydroxy-7,9-dioxo-2,3,4,5,7,9,13,13a-octahydro-2,5-methanopyrido[1′,2′:4,5]pyrazino[2,1-b][1,3]oxazepine-10-carboxamide]	2.9 nM	
C[C@@H]1C[C@H]2C[C@@H]1[C@@H]1Cn3cc(C(=O)NCc4c(F)cc(F)cc4F)c(=O)c(O)c3C(=O)N21 [Compound 84, (1S,2R,4 S,12aR)-7-hydroxy-2-methyl-6,8-dioxo-N-(2,4,6-trifluorobenzyl)-1,2,3,4,6,8,12,12a-octahydro-1,4-methanodipyrido[1,2-a:1′,2′-d]pyrazine-9-carboxamide]	2.9 nM	
O=C(NCc1cc(F)c(F)cc1F)c1cn2c(c(O)c1=O)C(=O)N1[C@H]3CC[C@H](C3)[C@@H]1C2 [Compound 79, (1R,4S,12aR)-7-hydroxy-6,8-dioxo-N-(2,4,5-trifluorobenzyl)-1,2,3,4,6,8,12,12a-octahydro-1,4-methanodipyrido[1,2-a:1′,2′-d]pyrazine-9-carboxamide]	3.4 nM	
O=C(NCc1c(F)cc(F)cc1F)c1cn2c(c(O)c1=O)C(=O)N1[C@H]3CCC[C@H](C3)[C@H]1C2 [Compound 85, (6 aS,7R,11S)-1-hydroxy-2,13-dioxo-N-(2,4,6-trifluorobenzyl)-6,6a,7,8,9,10,11,13-octahydro-2H-7,11-methanopyrido[1′,2′: 4,5]pyrazino[1,2-a]azepine-3-carboxamide]	2 nM	
O=C(NCc1ccc(F)cc1F)c1cn2c(c(O)c1=O)C(=O)N1[C@H]3CC[C@H](CC3)[C@H]1C2 [Compound 100, (1R,4R,12aS)—N-(2,4-difluorobenzyl)-7-hydroxy-6,8-dioxo-1,2,3,4,6,8,12,12a-octahydro-1,4-ethanodipyrido[1,2-a:1′,2′-d]pyrazine-9-carboxamide]	2.2 nM	
O=C(NC1(c2ccc(F)cc2F)CC1)c1cn2c(c(O)c1=O)C(=O)N1C(C2)O[C@H]2CC[C@@H]1C2 (stereo partly drawn) [Compound 27, (2 S,5R)—N-(1-(2,4-difluorophenyl)cyclopropyl)-8-hydroxy-7,9-dioxo-2,3,4,5,7,9,13,13a-octahydro-2,5-methanopyrido[1′,2′:4,5]pyrazino[2,1-b][1,3]oxazepine-10-carboxamide]	4.4 nM	
O=C(NCc1ccc(F)cc1F)c1cn2c(c(O)c1=O)C(=O)N1C(C2)[C@H]2CC[C@@H]1C2 (stereo in doubt) [Compound 48, (1S,4R,12aS)—N-(2,4-difluorobenzyl)-7-hydroxy-6,8-dioxo-1,2,3,4,6,8,12,12a-octahydro-1,4-methanodipyrido[1,2-a:1′,2′-d]pyrazine-9-carboxamide]		2.7 nM
O=C(N[C@@H](c1ccc(F)cc1F)C(F)(F)F)c1cn2c(c(O)c1=O)C(=O)N1C(C2)O[C@H]2CC[C@@H]1C2 (stereo partly drawn) [Compound 36, (2S,5R)—N—((S)-1-(2,4-difluorophenyl)-2,2,2-trifluoroethyl)-8-hydroxy-7,9-dioxo-2,3,4,5,7,9,13,13a-octahydro-2,5-methanopyrido[1′,2′:4,5]pyrazino[2,1-b][1,3]oxazepine-10-carboxamide]	7.6 nM	
O=C(NCc1ccc(F)cc1)c1cn2c(c(O)c1=O)C(=O)N1[C@@H]3CC[C@@H](C3)O[C@H]1C2 [Compound 15, (2 S,5R,13aS)—N-(4-fluorobenzyl)-8-hydroxy-7,9-dioxo-2,3,4,5,7,9,13,13a-octahydro-2,5-methanopyrido[1′,2′:4,5]pyrazino[2,1-b][1,3]oxazepine-10-carboxamide]	2.2 nM	
O=C(NCc1ccc(F)cc1Cl)c1cn2c(c(O)c1=O)C(=O)N1[C@H]3CC[C@H](C3)[C@@H]1C2 [Compound 68, (1R,4S,12aR)—N-(2-chloro-4-fluorobenzyl)-7-hydroxy-6,8-dioxo-1,2,3,4,6,8,12,12a-octahydro-1,4-methanodipyrido[1,2-a:1′,2′-d]pyrazine-9-carboxamide]	2.7 nM	
O=C(NCc1ccc(F)cc1OC1CC1)c1cn2c(c(O)c1=O)C(=O)N1[C@@H]3CC[C@@H](C3)O[C@H]1C2 [Compound 52, (2S,5R,13aS)—N-(2-cyclopropoxy-4-fluorobenzyl)-8-hydroxy-7,9-dioxo-2,3,4,5,7,9,13,13a-octahydro-2,5-methanopyrido[1%2′: 4,5]pyrazino[2,1-b][1,3]oxazepine-10-carboxamide]	15 nM	
O=C(NCc1c(F)cc(F)cc1F)c1cn2c(c(O)c1=O)C(=O)N1[C@H]3CC[C@H](C3)O[C@@H]1C2 [Compound 42, (2R,5S,13aR)-8-hydroxy-7,9-dioxo-N-(2,4,6-trifluorobenzyl)-2,3,4,5,7,9,13,13a-octahydro-2,5-methanopyrido[1′,2′:4,5]pyrazino[2,1-b][1,3]oxazepine-10-carboxamide]	2.5 nM	
O=C(NCc1ccc(F)c(F)c1F)c1cn2c(c(O)c1=O)C(=O)N1[C@@H]3CC[C@@H](C3)O[C@H]1C2 [Compound 44, (13aS)-8-hydroxy-7,9-dioxo-N-(2,3,4-trifluorobenzyl)-2,3,4,5,7,9,13,13a-octahydro-2,5-methanopyrido[1′,2′:4,5]pyrazino[2,1-b][1,3]oxazepine-10-carboxamide]	2.3 nM	
C[C@@H](NC(=O)c1cn2c(c(O)c1=O)C(=O)N1[C@H]3CC[C@H](C3)[C@@H]1C2)c1c(F)cc(F)cc1F [Compound 77, (1R,4 S,12aR)-7-hydroxy-6,8-dioxo-N—((R)-1-(2,4,6-trifluorophenyl)ethyl)-1,2,3,4,6,8,12,12a-octahydro-1,4-methanodipyrido[1,2-a:1′,2′-d]pyrazine-9-carboxamide]	5.6 nM	
O=C(NCc1c(F)cc(F)cc1F)c1cn2c(c(O)c1=O)C(=O)N1[C@H]3CC[C@H](CC3)[C@H]1C2 [Compound 101, (1R,4R,12aS)-7-hydroxy-6,8-dioxo-N-(2,4,6-trifluorobenzyl)-1,2,3,4,6,8,12,12a-octahydro-1,4-ethanodipyrido[1,2-a:1′,2′-d]pyrazine-9-carboxamide]	2.1 nM	
C[C@H](NC(=O)c1cn2c(c(O)c1=O)C(=O)N1[C@@H]3CC[C@@H](C3)O[C@H]1C2)c1ccc(F)cc1F [Compound 13, (2S,5R,13aS)—N—((S)-1-(2,4-difluorophenyl)ethyl)-8-hydroxy-7,9-dioxo-2,3,4,5,7,9,13,13a-octahydro-2,5-methanopyrido[1%2′: 4,5]pyrazino[2,1-b][1,3]oxazepine-10-carboxamide]	46 nM	
O=C(NCc1cc(Cl)c(F)cc1F)c1cn2c(c(O)c1=O)C(=O)N1[C@H]3CC[C@H](C3)[C@@H]1C2 [Compound 80, (1R,4S,12aR)—N-(5-chloro-2,4-difluorobenzyl)-7-hydroxy-6,8-dioxo-1,2,3,4,6,8,12,12a-octahydro-1,4-methanodipyrido[1,2-a:1′,2′-d]pyrazine-9-carboxamide]	4.6 nM	
O=C(NCc1ccccc1)c1cn2c(c(O)c1=O)C(=O)N1[C@H]3CC[C@H](C3)[C@@H]1C2 [Compound 94, (1R,4S,12aR)—N-benzyl-7-hydroxy-6,8-dioxo-1,2,3,4,6,8,12,12a-octahydro-1,4-methanodipyrido[1,2-a:1′,2′-d]pyrazine-9-carboxamide]	11.5 nM	
O=C(N[C@@H](c1ccc(F)cc1F)C(F)(F)F)c1cn2c(c(O)c1=O)C(=O)N1C(C2)O[C@@H]2CC[C@H]1C2 (stereo partly drawn) [Compound 54, (2R,5S)—N—((S)-1-(2,4-difluorophenyl)-2,2,2-trifluoroethyl)-8-hydroxy-7,9-dioxo-2,3,4,5,7,9,13,13a-octahydro-2,5-methanopyrido[1′,2′:4,5]pyrazino[2,1-b][1,3]oxazepine-10-carboxamide]	15.6 nM	
O=C(NCc1ccc(F)cc1C(F)(F)F)c1cn2c(c(O)c1=O)C(=O)N1[C@H]3CC[C@H](C3)[C@@H]1C2 [Compound 67, (1R,4S,12aR)—N-(4-fluoro-2-(trifluoromethyl)benzyl)-7-hydroxy-6,8-dioxo-1,2,3,4,6,8,12,12a-octahydro-1,4-methanodipyrido[1,2-a:1′,2′-d]pyrazine-9-carboxamide]	10.7 nM	
O=C(NCc1c(F)cc(F)cc1F)c1cn2c(c(O)c1=O)C(=O)N1[C@H]3C[C@H](C3)[C@@H]1C2 (single isomer, unassigned) [Compound 97]	2.1 nM	
O=C(NCc1ccc(F)cc1F)c1cn2c(c(O)c1=O)C(=O)N1[C@@H]3CC[C@@H](C3)O[C@H]1C2 (racemic) [Compound 1, N-(2,4-difluorobenzyl)-8-hydroxy-7,9-dioxo-2,3,4,5,7,9,13,13a-octahydro-2,5-methanopyrido[1′,2′:4,5]pyrazino[2,1-b][1,3]oxazepine-10-carboxamide]	2.6 nM	
